Test system: atherosclerotic plaques
Assay: Intravascular catheter beta probe detection of FDG in rabbit aorta
Format: in vivo, New Zealand white rabbits
Excerpt: Male New Zealand white rabbits ranging from 2.5 to 3.0 kilograms in weight (Charles River Breeding Lab) were maintained on a 2% cholesterol-6% peanut oil diet (ICN) for 10 weeks. After 1 week on the peanut oil diet, the abdominal aorta was denuded of endothelium by a modified Baumgartner technique. Briefly, each animal was anesthetized with a mixture of ketamine and xylazine and the right femoral artery was isolated. Subsequently, a 4 F Fogarty embolectomy catheter was introduced via arteriotomy and advanced under fluoroscopic guidance to the level of the diaphragm. The balloon was then inflated to 3 psi (pounds per square inch) above balloon inflation pressure and three passes were made down the abdominal aorta with the inflated catheter. […]
Additionally, FDG was administered intravenously to two additional rabbits. […] Aortic segments at previously assessed sites of plaque and control areas were excised and examined for uptake of FDG by standard well counting.
Sensitivity of the probe was 850±11 cps/μCi (mean±SD). Catheter-determined activity correlated well with well counting measurements, (r=0.89, P<0.001, FIG. 3). Moreover, atherosclerotic regions were readily distinguished from control by catheter mounted beta probe, (11.9±2.1 [n=9, range 9.7±15.3] vs. 4.8±1.9[n=14, range 1.3±7.3], cps in atherosclerotic vs. control regions, respectively, P<0.001; FIG. 4).

## OC[C@H]1OC(O)[C@H]([18F])[C@@H](O)[C@@H]1O (some centres unmarked) [FDG, ^18F-Fluorodeoxyglucose]
Atherosclerotic regions, n=9, FDG intravenously
  FDG activity by catheter mounted beta probe: 11.9±2.1 cps
Control regions, n=14, FDG intravenously
  FDG activity by catheter mounted beta probe: 4.8±1.9 cps
